Reference: patent US12297194B2, “N2-phenylpyrimidine-2,4-diamine compounds, and preparation methods and methods of use thereof” (BRIDGE BIOTHERAPEUTICS, INC., priority 2021, dated 2025)

Experiments:
Assay type in all cases: cell-based, murine
[1] = target: Ba/F3 EGFR L858R/C797S mutants (Homo sapiens, UniProt P00533, C797S/L858R, cells depend on it); assay: CellTiter-Glo cell viability, Ba/F3 EGFR L858R/C797S cells; conditions: 72 hours, read-out: Ba/F3 EGFR mutant cell (IC50, nM) L/C
Protocol: (§1) In order to evaluate an inhibitory ability on wild-type Ba/F3 EGFR and Ba/F3 EGFR mutations in Ba/F3 cell lines by the compounds of Formula 1, the experiment was carried out as described below.
(§2) The measurement of activities on Ba/F3 cells harboring wild-type EGFR and EGFR mutants by the compounds of the present invention were determined utilizing the CELLTITER-GLO™ system from Promega, as follows. The CELLTITER-GLO™ assay is a method for measuring the ATP present in cells to determine the cell viability. Ba/F3 EGFR wild-type and Ba/F3 EGFR L858R/C797S (L/C), Ba/F3 EGFR L858R/T790M/C797S (L/T/C), Ba/F3 EGFR Del19/T790M (D/T), Ba/F3 EGFR Del19/C797S (D/C), Ba/F3 EGFR Del19/T790M/C797S (D/T/C) mutant cell lines were maintained in RPMI1640, containing […], 1% penicillin-streptomycin, […] puromycin. Cells were grown in a humidified incubator at 37° C. with […].
(§3) The analysis of an EGFR inhibitory activity by the compounds was carried out in accordance with the analysis reaction recipe below.
(§4) 2500 cells/90 μL were seeded in 96 well cell culture plate, and after 24 hours, treated with the compounds represented by Formula 1 in concentrations of 0, 0.3, 0.9, 2.7, 8.2, 24.7, 74.1, 222.2, 666.7, 2000 (nM). After the reaction of 72 hours, the plate was incubated for 30 minutes at ambient temperature, and then, was further treated with 100 μL of the CELLTITER-GLO™ reagent and was shaken for 10 minutes at ambient temperature. Finally, measurement of the luminescence values were obtained using the SPECTRAMAX™ iD3 (Molecular Devices), and the IC50 values of the compound were analyzed using the GraphPad Prism program (version 9.0.2, GraphPad Software, Inc.).

Ba/F3 EGFR Wild-type = Ba/F3 EGFR Wild-type (Homo sapiens, UniProt P00533); assay: CellTiter-Glo cell viability, Ba/F3 EGFR wild-type cells; conditions: 72 hours, read-out: Ba/F3 EGFR mutant cell (IC50, nM) WT
Protocol: as §1, §2, §3, §4

[2] = target: Ba/F3 EGFR Del19/T790M/C797S mutants (Homo sapiens, UniProt P00533, T790M/C797S, cells depend on it, form not given); assay: CellTiter-Glo cell viability, Ba/F3 EGFR Del19/T790M/C797S cells; conditions: 72 hours, read-out: Ba/F3 EGFR mutant cell (IC50, nM) D/T/C
Protocol: as §1, §2, §3, §4

[3] = target: Ba/F3 EGFR L858R/T790M/C797S mutants (Homo sapiens, UniProt P00533, T790M/C797S/L858R, cells depend on it); assay: CellTiter-Glo cell viability, Ba/F3 EGFR L858R/T790M/C797S cells; conditions: 72 hours, read-out: Ba/F3 EGFR mutant cell (IC50, nM) L/T/C
Protocol: as §1, §2, §3, §4

[4] = target: Ba/F3 EGFR Del19/C797S mutants (Homo sapiens, UniProt P00533, C797S, cells depend on it, form not given); assay: CellTiter-Glo cell viability, Ba/F3 EGFR Del19/C797S cells; conditions: 72 hours, read-out: Ba/F3 EGFR mutant cell (IC50, nM) D/C
Protocol: as §1, §2, §3, §4

Ba/F3 EGFR Wild-type, sequence (P00533 whole entry, change not shown): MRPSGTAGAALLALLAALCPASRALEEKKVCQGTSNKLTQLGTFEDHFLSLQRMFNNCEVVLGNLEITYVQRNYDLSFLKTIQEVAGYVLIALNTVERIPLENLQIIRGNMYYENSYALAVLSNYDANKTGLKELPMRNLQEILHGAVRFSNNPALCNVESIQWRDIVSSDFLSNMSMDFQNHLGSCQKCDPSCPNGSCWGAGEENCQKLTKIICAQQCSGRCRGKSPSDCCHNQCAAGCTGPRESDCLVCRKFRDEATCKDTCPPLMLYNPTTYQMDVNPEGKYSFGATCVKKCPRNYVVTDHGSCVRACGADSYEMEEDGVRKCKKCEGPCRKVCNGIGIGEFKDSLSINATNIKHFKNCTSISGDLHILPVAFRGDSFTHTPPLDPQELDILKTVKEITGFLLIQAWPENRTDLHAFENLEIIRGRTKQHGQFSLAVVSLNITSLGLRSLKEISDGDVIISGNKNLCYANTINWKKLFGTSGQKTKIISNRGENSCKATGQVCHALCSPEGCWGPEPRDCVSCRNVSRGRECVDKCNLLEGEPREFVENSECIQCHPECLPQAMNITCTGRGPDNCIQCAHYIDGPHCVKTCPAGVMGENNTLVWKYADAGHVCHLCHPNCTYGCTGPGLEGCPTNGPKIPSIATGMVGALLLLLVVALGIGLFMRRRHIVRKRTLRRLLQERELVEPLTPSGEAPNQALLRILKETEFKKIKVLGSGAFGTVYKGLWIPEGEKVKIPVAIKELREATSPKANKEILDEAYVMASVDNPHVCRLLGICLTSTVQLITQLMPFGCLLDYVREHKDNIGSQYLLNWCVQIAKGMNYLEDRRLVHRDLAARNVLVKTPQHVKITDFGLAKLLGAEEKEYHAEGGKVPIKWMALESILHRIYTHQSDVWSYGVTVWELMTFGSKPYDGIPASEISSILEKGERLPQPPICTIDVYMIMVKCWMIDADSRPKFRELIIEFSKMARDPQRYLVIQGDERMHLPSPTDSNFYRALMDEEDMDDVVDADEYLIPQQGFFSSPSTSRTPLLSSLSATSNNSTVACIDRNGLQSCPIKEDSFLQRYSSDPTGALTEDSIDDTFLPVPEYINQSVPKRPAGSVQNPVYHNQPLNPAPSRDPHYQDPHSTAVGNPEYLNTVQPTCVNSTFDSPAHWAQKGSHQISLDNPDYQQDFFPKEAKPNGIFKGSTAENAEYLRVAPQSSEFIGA
Ba/F3 EGFR Del19/C797S mutants, sequence (P00533 with tags, fused parts or gaps DEL746-750/C797S, form open): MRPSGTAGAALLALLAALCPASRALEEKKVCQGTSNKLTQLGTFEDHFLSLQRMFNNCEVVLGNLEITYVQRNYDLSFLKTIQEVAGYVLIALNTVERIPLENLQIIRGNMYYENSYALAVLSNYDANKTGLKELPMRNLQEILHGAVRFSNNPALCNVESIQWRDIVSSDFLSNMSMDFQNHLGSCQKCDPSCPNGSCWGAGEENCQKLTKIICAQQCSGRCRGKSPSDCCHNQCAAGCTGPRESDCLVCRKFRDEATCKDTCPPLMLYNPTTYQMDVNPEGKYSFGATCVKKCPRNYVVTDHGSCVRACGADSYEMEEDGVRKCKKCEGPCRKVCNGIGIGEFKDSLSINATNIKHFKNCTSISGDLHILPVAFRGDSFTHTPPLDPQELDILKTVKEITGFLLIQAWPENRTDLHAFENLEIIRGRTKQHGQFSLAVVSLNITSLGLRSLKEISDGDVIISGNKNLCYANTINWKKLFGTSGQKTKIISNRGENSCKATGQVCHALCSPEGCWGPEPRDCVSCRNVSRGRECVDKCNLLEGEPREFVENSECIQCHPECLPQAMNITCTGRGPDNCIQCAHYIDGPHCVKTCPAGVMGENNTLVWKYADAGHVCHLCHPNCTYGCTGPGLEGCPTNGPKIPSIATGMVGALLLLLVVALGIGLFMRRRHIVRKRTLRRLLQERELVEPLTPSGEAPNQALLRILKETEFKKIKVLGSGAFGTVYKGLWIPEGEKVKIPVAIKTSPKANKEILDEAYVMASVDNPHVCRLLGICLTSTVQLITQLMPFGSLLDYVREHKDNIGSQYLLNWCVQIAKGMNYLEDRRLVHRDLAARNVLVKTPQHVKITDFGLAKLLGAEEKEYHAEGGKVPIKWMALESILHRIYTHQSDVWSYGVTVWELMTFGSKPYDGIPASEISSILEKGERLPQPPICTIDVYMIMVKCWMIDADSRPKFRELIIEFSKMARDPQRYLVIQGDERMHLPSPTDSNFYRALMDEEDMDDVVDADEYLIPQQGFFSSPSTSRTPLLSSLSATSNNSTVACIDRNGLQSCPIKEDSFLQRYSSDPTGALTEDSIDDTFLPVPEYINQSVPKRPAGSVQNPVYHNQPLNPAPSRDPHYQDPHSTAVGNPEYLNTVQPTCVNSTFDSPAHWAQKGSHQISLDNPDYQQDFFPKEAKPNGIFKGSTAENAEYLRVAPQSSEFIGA
Ba/F3 EGFR L858R/T790M/C797S mutants, sequence (P00533 whole entry T790M/C797S/L858R): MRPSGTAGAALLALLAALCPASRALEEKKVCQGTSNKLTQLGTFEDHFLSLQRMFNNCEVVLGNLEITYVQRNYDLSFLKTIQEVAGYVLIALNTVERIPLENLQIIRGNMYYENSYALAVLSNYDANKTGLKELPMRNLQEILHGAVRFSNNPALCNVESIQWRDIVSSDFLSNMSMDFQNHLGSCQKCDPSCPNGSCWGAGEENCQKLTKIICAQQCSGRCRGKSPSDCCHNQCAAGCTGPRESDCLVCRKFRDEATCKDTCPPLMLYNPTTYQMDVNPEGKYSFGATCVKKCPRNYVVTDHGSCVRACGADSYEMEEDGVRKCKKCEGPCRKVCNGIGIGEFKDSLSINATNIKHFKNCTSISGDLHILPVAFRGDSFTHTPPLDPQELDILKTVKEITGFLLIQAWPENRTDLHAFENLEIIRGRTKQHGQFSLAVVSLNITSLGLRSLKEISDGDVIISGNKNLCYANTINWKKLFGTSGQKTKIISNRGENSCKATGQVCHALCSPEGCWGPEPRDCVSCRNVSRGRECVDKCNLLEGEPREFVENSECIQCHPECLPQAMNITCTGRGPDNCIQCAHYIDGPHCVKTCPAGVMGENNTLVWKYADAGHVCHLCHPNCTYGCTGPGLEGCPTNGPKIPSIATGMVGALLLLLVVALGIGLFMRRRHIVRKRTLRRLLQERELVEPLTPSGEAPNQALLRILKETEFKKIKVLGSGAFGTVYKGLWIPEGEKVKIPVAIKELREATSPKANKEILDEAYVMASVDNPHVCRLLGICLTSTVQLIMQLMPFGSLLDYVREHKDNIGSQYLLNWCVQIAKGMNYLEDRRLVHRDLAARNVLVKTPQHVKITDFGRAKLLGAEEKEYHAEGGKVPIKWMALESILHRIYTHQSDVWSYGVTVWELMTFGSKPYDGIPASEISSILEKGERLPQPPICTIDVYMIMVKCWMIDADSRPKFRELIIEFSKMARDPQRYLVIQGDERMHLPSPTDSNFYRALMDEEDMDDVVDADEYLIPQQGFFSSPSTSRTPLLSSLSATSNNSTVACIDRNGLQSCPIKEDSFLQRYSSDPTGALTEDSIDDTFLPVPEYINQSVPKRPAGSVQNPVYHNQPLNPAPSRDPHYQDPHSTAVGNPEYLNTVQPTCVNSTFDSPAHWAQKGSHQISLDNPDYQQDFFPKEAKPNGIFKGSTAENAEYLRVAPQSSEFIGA
Ba/F3 EGFR L858R/C797S mutants, sequence (P00533 whole entry C797S/L858R): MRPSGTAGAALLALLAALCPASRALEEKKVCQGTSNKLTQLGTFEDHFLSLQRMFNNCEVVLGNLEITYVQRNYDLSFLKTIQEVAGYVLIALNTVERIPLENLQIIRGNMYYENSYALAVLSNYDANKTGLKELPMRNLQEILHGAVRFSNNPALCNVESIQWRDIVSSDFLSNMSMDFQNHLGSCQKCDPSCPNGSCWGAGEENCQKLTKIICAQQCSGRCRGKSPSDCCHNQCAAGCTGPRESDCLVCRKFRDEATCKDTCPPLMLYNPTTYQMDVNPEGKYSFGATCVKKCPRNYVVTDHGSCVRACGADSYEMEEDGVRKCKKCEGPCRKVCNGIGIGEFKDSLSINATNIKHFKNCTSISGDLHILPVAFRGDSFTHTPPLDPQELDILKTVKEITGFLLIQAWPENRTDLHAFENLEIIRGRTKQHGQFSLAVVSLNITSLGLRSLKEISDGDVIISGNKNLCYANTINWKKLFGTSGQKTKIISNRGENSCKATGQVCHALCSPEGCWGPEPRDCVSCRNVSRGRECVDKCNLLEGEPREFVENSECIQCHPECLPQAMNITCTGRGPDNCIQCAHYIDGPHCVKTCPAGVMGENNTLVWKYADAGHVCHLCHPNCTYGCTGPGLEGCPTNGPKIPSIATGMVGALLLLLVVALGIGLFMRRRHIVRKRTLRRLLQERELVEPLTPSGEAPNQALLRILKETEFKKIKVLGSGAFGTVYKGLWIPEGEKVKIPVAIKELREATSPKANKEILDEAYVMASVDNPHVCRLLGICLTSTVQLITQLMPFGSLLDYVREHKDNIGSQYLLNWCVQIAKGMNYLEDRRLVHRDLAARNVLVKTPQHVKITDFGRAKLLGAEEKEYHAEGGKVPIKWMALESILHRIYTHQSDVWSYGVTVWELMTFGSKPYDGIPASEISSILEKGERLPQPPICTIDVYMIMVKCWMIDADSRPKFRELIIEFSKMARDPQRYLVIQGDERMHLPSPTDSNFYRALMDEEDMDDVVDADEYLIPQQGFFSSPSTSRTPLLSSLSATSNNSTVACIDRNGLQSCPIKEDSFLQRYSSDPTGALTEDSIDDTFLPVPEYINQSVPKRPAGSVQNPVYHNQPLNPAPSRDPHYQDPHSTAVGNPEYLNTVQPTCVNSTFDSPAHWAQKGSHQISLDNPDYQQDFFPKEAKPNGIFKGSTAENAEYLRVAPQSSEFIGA

Compound	GI50 [1] [nM]	GI50 (Ba/F3 EGFR Wild-type) [nM]	GI50 [2] [nM]	GI50 [3] [nM]	GI50 [4] [nM]
COc1cc(N2CCC(N3CCN(C)CC3)CC2)c(C)cc1Nc1ncc(F)c(Nc2ccc3nccnc3c2NS(C)(=O)=O)n1 [Example A22, N-(6-((5-fluoro-2-((2-methoxy-5-methyl-4-(4-(4-methylpiperazin-1-yl)piperidin-1-yl)phenyl)amino)pyrimidin-4-yl)amino)quinoxalin-5-yl)methanesulfonamide]	189	521	189	369	73
CCc1cc(Nc2ncc(Br)c(Nc3ccc4nccnc4c3NS(C)(=O)=O)n2)c(OC)cc1N1CCC(N(C)C)CC1 [Example B2, N-(6-((5-bromo-2-((4-(4-(dimethylamino)piperidin-1-yl)-5-ethyl-2-methoxyphenyl)amino)pyrimidin-4-yl)amino)quinoxalin-5-yl)methanesulfonamide]	195	2100	7	13	28
COc1cc(N2CCC(N3CCN(C)CC3)CC2)c(C(F)(F)F)cc1Nc1ncc(Cl)c(Nc2ccc3nccnc3c2NS(C)(=O)=O)n1 [Example A7, N-(6-((5-chloro-2-((2-methoxy-4-(4-(4-methylpiperazin-1-yl)piperidin-1-yl)-5-(trifluoromethyl)phenyl)amino)pyrimidin-4-yl)amino)quinoxalin-5-yl)methanesulfonamide]	246	602	36	169	96
COc1cc(N2CCC(N(C)C)CC2)ccc1Nc1ncc(Br)c(Nc2ccc3nccnc3c2NS(C)(=O)=O)n1 [Example B3, N-(6-((5-bromo-2-((4-(4-(dimethylamino)piperidin-1-yl)-2-methoxyphenyl)amino)pyrimidin-4-yl)amino)quinoxalin-5-yl)methanesulfonamide]	325	725	30	86	147
COc1cc(C2CCNCC2)ccc1Nc1ncc(F)c(Nc2ccc3nccnc3c2NS(C)(=O)=O)n1 [Example B17, N-(6-((5-fluoro-2-((2-methoxy-4-(piperidin-4-yl)phenyl)amino)pyrimidin-4-yl)amino)quinoxalin-5-yl)methanesulfonamide]	> 2000	> 2000	> 2000	> 2000	1250
CC(C)Oc1cc(C2CCNCC2)ccc1Nc1ncc(Cl)c(Nc2ccc3nccnc3c2NS(C)(=O)=O)n1 [Example B22, N-(6-((5-chloro-2-((2-isopropoxy-4-(piperidin-4-yl)phenyl)amino)pyrimidin-4-yl)amino)103quinoxaline-5-yl)methanesulfonamide]	> 2000	> 2000	> 2000	> 2000	–
CCc1cc(Nc2ncc(F)c(Nc3ccc4nccnc4c3NS(C)(=O)=O)n2)c(OC)cc1N1CCC(N2CCN(C)CC2)CC1 [Example A9, N-(6-((2-((5-ethyl-2-methoxy-4-(4-(4-methylpiperazin-1-yl)piperidin-1-yl)phenyl)amino)-5-fluoropyrimidin-4-yl)amino)quinoxalin-5-yl)methanesulfonamide]	106	524	62	80	15
COc1cc(N2CCC(N(C)C)CC2)c(C)cc1Nc1ncc(C(F)(F)F)c(Nc2ccc3nccnc3c2NS(C)(=O)=O)n1 [Example B9, N-(6-((2-((4-(4-(dimethylamino)piperidin-1-yl)-2-methoxy-5-methylphenyl)amino)-5-(trifluoromethyl)pyrimidin-4-yl)amino)quinoxalin-5-yl) methane sulfonamide]	> 2000	> 2000	> 2000	> 2000	> 2000
CCc1cc(Nc2ncc(Br)c(Nc3ccc4nccnc4c3NS(C)(=O)=O)n2)c(OC)cc1N1CCC(N2CCN(C)CC2)CC1 [Example A8, N-(6-((5-bromo-2-((5-ethyl-2-methoxy-4-(4-(4-methylpiperazin-1-yl)piperidin-1-yl)phenyl)amino)pyrimidin-4-yl)amino)quinoxalin-5-yl)methanesulfonamide]	147	919	6	18	38
COc1cc(N2CCOCC2)c(C)cc1Nc1ncc(Br)c(Nc2ccc3nccnc3c2NS(C)(=O)=O)n1 [Example B10, N-(6-((5-bromo-2-((2-methoxy-5-methyl-4-morpholinophenyl)amino)pyrimidin-4-yl)amino)quinoxalin-5-yl)methanesulfonamide]	678	858	252	584	537
COc1cc(N2CCC(N3CCN(C)CC3)CC2)c(C)cc1Nc1ncc(C(F)(F)F)c(Nc2ccc3nccnc3c2NS(C)(=O)=O)n1 [Example A20, N-(6-((2-((2-methoxy-5-methyl-4-(4-(4-methylpiperazin-1-yl)piperidin-1-yl)phenyl)amino)-5-(trifluoromethyl)pyrimidin-4-yl)amino)quinoxalin-5-yl)methane sulfonamide]	> 2000	> 2000	1590	> 2000	> 2000
COc1cc(N2CCC(N3CCN(C)CC3)CC2)c(C2CC2)cc1Nc1ncc(Cl)c(Nc2ccc3nccnc3c2NS(C)(=O)=O)n1 [Example A5, N-(6-((5-chloro-2-((5-cyclopropyl-2-methoxy-4-(4-(4-methylpiperazin-1-yl)piperidin-1-yl)phenyl)amino)pyrimidin-4-yl)amino)quinoxalin-5-yl)methanesulfonamide]	244	938	23	69	76
COc1cc(N2CCC(N(C)C)CC2)c(C)cc1Nc1ncc(Cl)c(Nc2ccc3nccnc3c2NS(C)(=O)=O)n1 [Example B4, N-(6-((5-chloro-2-((4-(4-(dimethylamino)piperidin-1-yl)-2-methoxy-5-methylphenyl)amino)pyrimidin-4-yl)amino)quinoxalin-5-yl)methanesulfonamide]	14	10	4	9	9
COc1cc(N2CCC(N3CCN(C)CC3)CC2)c(C)cc1Nc1ncc(Cl)c(Nc2ccc3nccnc3c2NS(=O)(=O)C2CC2)n1 [Example A26, N-(6-((5-chloro-2-((2-methoxy-5-methyl-4-(4-(4-methylpiperazin-1-yl)piperidin-1-yl)phenyl)amino)pyrimidin-4-yl)amino)quinoxalin-5-yl)cyclopropanesulfonamide]	163	1280	79	107	72
CNc1cc(N2CCC(N3CCN(C)CC3)CC2)c(C)cc1Nc1ncc(Cl)c(Nc2ccc3nccnc3c2NS(C)(=O)=O)n1 [Example A13, N-(6-((5-chloro-2-((5-methyl-2-(methylamino)-4-(4-(4-methylpiperazin-1-yl)piperidin-1-yl)phenyl)amino)pyrimidin-4-yl)amino)quinoxalin-5-yl)methanesulfonamide]	646	> 2000	109	338	265
COc1cc(N2CCC(N3CCN(C)CC3)CC2)ccc1Nc1ncc(Cl)c(Nc2ccc3nccnc3c2NS(C)(=O)=O)n1 [Example A3, N-(6-((5-chloro-2-((2-methoxy-4-(4-(4-methylpiperazin-1-yl)piperidin-1-yl)phenyl)amino)pyrimidin-4-yl)amino)quinoxalin-5-yl)methanesulfonamide]	–	–	48	97.6	–
CCc1cc(Nc2ncc(Cl)c(Nc3ccc4nccnc4c3NS(C)(=O)=O)n2)c(OC)cc1N1CCC(N(C)C)CC1 [Example B5, N-(6-((5-chloro-2-((4-(4-(dimethylamino)piperidin-1-yl)-5-ethyl-2-methoxyphenyl)amino)pyrimidin-4-yl)amino)quinoxalin-5-yl)methanesulfonamide]	223	1860	14	36	30
